Assay [1] deals with Botulinum neurotoxin type A (Clostridium botulinum, UniProt P0DPI0). The assay is described as follows: Inhibition of Clostridium botulinum neurotoxin A light chain by HPLC-based assay.
Assay [2] deals with Botulinum neurotoxin type A (Clostridium botulinum) (UniProt P0DPI0). Nature of the assay: Inhibition of Clostridium botulinum neurotoxin A light chain at 20 uM by HPLC-based assay.

SMILES strings stand for the structures.

Data on 4 compounds can be found in ChEMBL document CHEMBL1156013, “Pharmacophore-guided lead optimization: the rational design of a non-zinc coordinating, sub-micromolar inhibitor of the botulinum neurotoxin serotype a metalloprotease” (Bioorg Med Chem Lett, 2009).

Chain of Botulinum neurotoxin type A (Clostridium botulinum) (P0DPI0 2-448 limits assumed): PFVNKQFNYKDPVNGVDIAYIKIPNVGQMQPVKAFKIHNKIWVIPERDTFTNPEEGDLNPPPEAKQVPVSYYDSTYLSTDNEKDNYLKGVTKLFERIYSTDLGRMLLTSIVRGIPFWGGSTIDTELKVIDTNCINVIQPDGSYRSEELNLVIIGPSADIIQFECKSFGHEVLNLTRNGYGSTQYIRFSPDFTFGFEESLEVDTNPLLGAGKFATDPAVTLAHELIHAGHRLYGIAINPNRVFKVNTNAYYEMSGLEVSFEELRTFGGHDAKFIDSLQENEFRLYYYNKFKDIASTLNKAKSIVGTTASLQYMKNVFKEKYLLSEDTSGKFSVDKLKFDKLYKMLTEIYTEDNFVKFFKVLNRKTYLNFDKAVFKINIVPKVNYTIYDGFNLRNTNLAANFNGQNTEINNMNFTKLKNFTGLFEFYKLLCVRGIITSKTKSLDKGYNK
Chain of Botulinum neurotoxin type A (P0DPI0 2-448 limits assumed): as above

In turn, `N=C(N)c1ccc(Oc2ccc(-c3cc4ccc(/C(N)=N/CCCNc5ccnc6cc(Cl)ccc56)cc4[nH]3)cc2)cc1` gave an inhibition constant Ki in assay [1] of 600 nM. The compound also yielded an inhibition in assay [2] of 95%. `N=C(N)c1ccc(Oc2ccc(-c3cc4ccc(C(=N)N)cc4[nH]3)cc2)cc1`: in assay [1], the half-inhibitory concentration (IC50) came to 3000 nM and the inhibition constant (Ki) turned out to be 10000 nM. As for `N=C(N)c1ccc2cc(-c3ccc(Oc4ccc(/C(N)=N/CCCNc5ccnc6cc(Cl)ccc56)cc4)cc3)[nH]c2c1`, affinity in assay [1] was put at a Ki of 600 nM. The inhibition in assay [2] was 95%. Compound `Clc1ccc2c(NCCCNCCCNc3ccnc4cc(Cl)ccc34)ccnc2c1` registered an inhibition in assay [2] of 60%.
